# Like-named read-outs stand apart in the source and are kept apart here.
# Experiments:
# [1] = tested on: HBV rcDNA in HepDE19 cells; test: HepDE19 cell culture system, rcDNA quantitation using bDNA assay, MacSynergy II; type: cell-based, human hepatoma cell line; details: for AVERAGE % INHIBITION: GLS-4 0 μM; for EC50: Hepatitis B virus
# Protocol: In vitro combination studies were conducted using the method of Prichard and Shipman (Prichard M N, and Shipman C Jr., Antiviral Research, 1990, 14 (4-5), 181-205; and Prichard M N, et. al., MacSynergy II). HepDE19 cell culture system is a HepG2 (human hepatocarcinoma) derived cell line that supports HBV DNA replication and cccDNA formation in a tetracycline (Tet)-regulated manner and produces HBV rcDNA and a detectable reporter molecule dependent on the production and maintenance of cccDNA (Guo et al 2007. J. Virol 81:12472-12484). HepDE19 (50,000 cells/well) were plated in 96 well collagen-coated tissue-culture treated microtiter plates in DMEM/F12 medium supplemented with 10% fetal bovine serum, 1% penicillin-streptomycin and 1 μg/ml tetracycline and incubated in a humidified incubator at 37° C. and 5% CO2 overnight. Next day, the cells were switched to fresh medium without tetracycline and incubated for 4 hrs at 37° C. and 5% CO2. […] The two inhibitors were tested both singly as well as in combinations in a checkerboard fashion such that each concentration of inhibitor A was combined with each concentration of inhibitor B to determine their combination effects on inhibition of rcDNA production. Following a 7 day-incubation of cells with compound combinations, the level of rcDNA present in the inhibitor-treated wells was measured using a Quantigene 2.0 bDNA assay kit (Affymetrix, Santa Clara, Calif.) with HBV specific custom probe set and manufacturers instructions. […] The RLU data from the single compound treated cells were analyzed using XL-Fit module in Microsoft Excel to determine EC50 values using a 4-parameter curve fitting algorithm. Concurrently, the effect of compounds on cell viability was assessed using replicate plates, plated at a density of 5,000 cells/well and incubated for 4 days, to determine the ATP content as a measure of cell viability using the cell-titer glo reagent (CTG; Promega Corporation, Madison, Wis.) as per manufacturer's instructions.
# In vitro combination studies were conducted using the method of Prichard and Shipman (Prichard M N, Shipman C, Jr., Antiviral Res, 14, 181-205 (1990)). The HepDE19 cell line was developed as described in Guo et al. (Guo et al., J Virol, 81, 12472-12484 (2007)). It is a human hepatoma cell line stably transfected with the HBV genome, and which can express HBV pregenomic RNA and support HBV rcDNA (relaxed circular DNA) synthesis in a tetracycline-regulated manner. HepDE19 cells were plated in 96 well tissue-culture treated microtiter plates in DMEM/F12 medium supplemented with 10% fetal bovine serum+1% penicillin-streptomycin without tetracycline and incubated in a humidified incubator at 37° C. and 5% CO2 overnight. […] The two inhibitors were tested both singly as well as in combinations in a checkerboard fashion such that each concentration of inhibitor A was combined with each concentration of inhibitor B to determine their combination effects on inhibition of rcDNA production. Following a 48 hour-incubation, the level of rcDNA present in the inhibitor-treated wells was measured using a bDNA assay (Affymetrix) with HBV specific custom probe set and manufacturers instructions. […] Concurrently, the effect of inhibitor combinations on cell viability was assessed using replicate plates that were used to determine the ATP content as a measure of cell viability using the Cell-TiterGlo reagent (Promega) as per manufacturer's instructions.
# In vitro combination studies were conducted using the method of Prichard and Shipman (1990) (Prichard M N, Shipman C, Jr. 1990. A three-dimensional model to analyze drug-drug interactions. Antiviral Res 14:181-205 AND Prichard M N. 1992. MacSynergy II, University of Michigan).
# [2] = tested on: D type HBV in primary human hepatocytes; test: microbe, parasite or virus in culture; type: cell-based; details: Hepatitis B virus, Hepatocyte
# How it was run: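 Supernatants collected on day 8 were assayed for HBV DNA by qPCR after compound exposure beginning day 2, with media and compound replaced every second day, in hepatocytes infected on day 1 with D type HBV. Dose-response: 7 points, 3-fold steps, triplicate; pairwise combinations tested as 5×5 matrix, synergy by MacSynergy.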
# [3] = tested on: D type HBV in primary human hepatocytes (HBsAg); test: microbe, parasite or virus in culture; type: cell-based; details: Hepatitis B virus, Hepatocyte
# How it was run: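 HBsAg inhibition versus DMSO control was determined by ELISA of day 8 supernatants. Percoll-purified PHHs received D type HBV one day after seeding, with compounds from day 2 and media changes every other day. Singles at 7 concentrations (3-fold, triplicate); pairs in 5×5 matrices.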
smiles,measurement,setting,value
CC[C@@H](C)NS(=O)(=O)c1ccc(F)c(C(=O)Nc2ccc(F)c(F)c2)c1 [Compound 3],AVERAGE % INHIBITION,[1]; COMPOUND 3 0.040 μM,11.14%
same,AVERAGE % INHIBITION,[1]; COMPOUND 3 0.110 μM,19.99%
same,AVERAGE % INHIBITION,[1]; COMPOUND 3 0.330 μM,56.68%
same,AVERAGE % INHIBITION,[1]; COMPOUND 3 1.000 μM,86.87%
same,AVERAGE % INHIBITION,[1]; COMPOUND 3 3.000 μM,94.49%
same,EC50,"[1]; HepDE19, rcDNA, bDNA assay, DE19 cells, read-out: Inhibitor A EC50",0.272 µM
same,EC50,"[1]; HepDE19, rcDNA by bDNA assay, single agent, read-out: INHIBITOR A EC50",0.454 µM
same,EC50,"[2]; 456 h, HBV DNA endpoint, PHH, determined in an earlier separate experiment (Table 19d), read-out: Inhibitor B EC50",0.877 µM
same,EC50,"[2]; 576 h, PHH, determined in an earlier separate experiment (Table 24d), read-out: Inhibitor B EC50 HBV DNA",0.877 µM
same,inhibition at 0.06173 µM,"[2]; read-out: AVERAGE % […] DNA, COMPOUND 3 61.73 nM alone (Table 19a)",-28.1%
same,inhibition at 0.06864 µM,"[2]; read-out: AVERAGE % […] DNA, COMPOUND 3 68.64 nM alone (Table 20a)",-2.79%
same,inhibition at 0.18519 µM,"[2]; read-out: AVERAGE % […] DNA, COMPOUND 3 185.19 nM alone (Table 19a), read-out: AVERAGE % INHIBITION HBV DNA",-25.9%
same,inhibition at 0.20593 µM,"[2]; read-out: AVERAGE % […] DNA, COMPOUND 3 205.93 nM alone (Table 20a)",-5.02%
same,inhibition at 0.55556 µM,"[2]; read-out: AVERAGE % […] DNA, COMPOUND 3 555.56 nM alone (Table 19a), read-out: AVERAGE % INHIBITION HBV DNA",-3.32%
same,inhibition at 0.61778 µM,"[2]; read-out: AVERAGE % […] DNA, COMPOUND 3 617.78 nM alone (Table 20a)",34.8%
same,inhibition at 1.66667 µM,"[2]; read-out: AVERAGE % […] DNA, COMPOUND 3 1666.67 nM alone (Table 19a)",25.9%
same,inhibition at 1.85333 µM,"[2]; read-out: AVERAGE % […] DNA, COMPOUND 3 1853.33 nM alone (Table 20a)",66.4%
same,inhibition at 5 µM,"[2]; read-out: AVERAGE % […] DNA, COMPOUND 3 5000.00 nM alone (Table 19a), read-out: AVERAGE % INHIBITION HBV DNA",74.8%
same,inhibition at 5.56 µM,"[2]; read-out: AVERAGE % […] DNA, COMPOUND 3 5560.00 nM alone (Table 20a)",85.3%
same,inhibition at 61.73 µM,"[2]; read-out: AVERAGE % […] DNA, COMPOUND 3 61.73 μM alone",-11.7%
same,inhibition at 185.19 µM,"[2]; read-out: AVERAGE % […] DNA, COMPOUND 3 185.19 μM alone",4.14%
same,inhibition at 555.56 µM,"[2]; read-out: AVERAGE % […] DNA, COMPOUND 3 555.56 μM alone",26.5%
same,inhibition at 1666.67 µM,"[2]; read-out: AVERAGE % […] DNA, COMPOUND 3 1666.67 μM alone",69.4%
same,inhibition at 5000 µM,"[2]; read-out: AVERAGE % […] DNA, COMPOUND 3 5000.00 μM alone",84.3%
same,EC50,"[2]; HBV DNA, determined in an earlier separate experiment, read-out: Inhibitor EC50",0.877 µM
same,EC50,"[3]; 456 h, read-out: Inhibitor B EC50",7.79 µM
same,EC50,"[3]; 576 h, read-out: Inhibitor B EC50 HBsAg",7.79 µM
same,inhibition at 0.06173 µM,"[3]; read-out: AVERAGE % INHIBITION HBsAg, COMPOUND 3 61.73 nM alone (Table 19b)",-20%
same,inhibition at 0.06864 µM,"[3]; read-out: AVERAGE % INHIBITION HBsAg, COMPOUND 3 68.64 nM alone (Table 20b)",-16.4%
same,inhibition at 0.18519 µM,"[3]; read-out: AVERAGE % INHIBITION HBsAg, COMPOUND 3 185.19 nM alone (Table 19b)",-17.3%
same,inhibition at 0.20593 µM,"[3]; read-out: AVERAGE % INHIBITION HBsAg, COMPOUND 3 205.93 nM alone (Table 20b)",-21.6%
same,inhibition at 0.55556 µM,"[3]; read-out: AVERAGE % INHIBITION HBsAg, COMPOUND 3 555.56 nM alone (Table 19b)",-14%
same,inhibition at 0.61778 µM,"[3]; read-out: AVERAGE % INHIBITION HBsAg, COMPOUND 3 617.78 nM alone (Table 20b)",-5.12%
same,inhibition at 1.66667 µM,"[3]; read-out: AVERAGE % INHIBITION HBsAg, COMPOUND 3 1666.67 nM alone (Table 19b)",1.44%
same,inhibition at 1.85333 µM,"[3]; read-out: AVERAGE % INHIBITION HBsAg, COMPOUND 3 1853.33 nM alone (Table 20b)",14.6%
same,inhibition at 5 µM,"[3]; read-out: AVERAGE % INHIBITION HBsAg, COMPOUND 3 5000.00 nM alone (Table 19b)",28.2%
same,inhibition at 5.56 µM,"[3]; read-out: AVERAGE % INHIBITION HBsAg, COMPOUND 3 5560.00 nM alone (Table 20b)",43.8%
same,inhibition at 61.73 µM,"[3]; read-out: AVERAGE % INHIBITION HBsAg, COMPOUND 3 61.73 μM alone",-5.49%
same,inhibition at 185.19 µM,"[3]; read-out: AVERAGE % INHIBITION HBsAg, COMPOUND 3 185.19 μM alone",-1.46%
same,inhibition at 555.56 µM,"[3]; read-out: AVERAGE % INHIBITION HBsAg, COMPOUND 3 555.56 μM alone",4.63%
same,EC50,[3]; read-out: Inhibitor EC50,7.79 µM

# — patent US20220265817A1, “THERAPEUTIC COMPOSITIONS AND METHODS FOR TREATING HEPATITIS B” (priority 2017, published 2022)
